target: T1, angiotensin II receptor (Oryctolagus cuniculus, UniProt P34976); assay: inhibition of angiotensin II induced contraction of isolated rabbit aorta rings; assay type: cell-based, New Zealand White rabbit; details: test compound incubated 20 minutes, 37° C., pH 7.4, read-out: IC50 (concentration being required to inhibit angiotensin II induced contraction by 50%)
T1 construct: The aorta was cut into 3~4 mm to form ring samples; from tissue; host or cells: isolated aorta rings of New Zealand White rabbits
T1 sequence (P34976 1-359): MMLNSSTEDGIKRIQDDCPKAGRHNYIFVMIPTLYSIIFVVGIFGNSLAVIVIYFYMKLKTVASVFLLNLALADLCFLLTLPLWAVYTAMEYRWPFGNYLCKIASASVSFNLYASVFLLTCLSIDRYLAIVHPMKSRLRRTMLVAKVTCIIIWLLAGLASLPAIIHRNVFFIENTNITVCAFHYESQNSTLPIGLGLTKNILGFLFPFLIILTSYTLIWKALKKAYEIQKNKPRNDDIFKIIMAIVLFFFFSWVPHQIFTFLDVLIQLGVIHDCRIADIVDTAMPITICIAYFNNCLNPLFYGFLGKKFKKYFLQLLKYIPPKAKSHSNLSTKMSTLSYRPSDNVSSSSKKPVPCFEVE
Description: The antagonistic activity of the representative compounds of the invention was evaluated using the methodology describe below.
From New Zealand White rabbits (male or female, 2~2.5 kg), aorta was isolated, and fat and connected tissue were removed therefrom. The aorta was cut into 3~4 mm to form ring samples. The aorta sample was suspended in 20 ml of organ bath (37° C.) containing modified Krebs-Henseleit solution saturated with 95% O2 /5% CO2 (pH 7.4).
The aorta preparation was exposed consecutively to 2 g of tensile strength for 90 minutes intermittently washing the sample with 30 minutes interval and then to 30 mM of KCl to observe contraction response. After washing more than three times, the aorta preparation was again allowed to contract three times for stabilization by adding Angiotensin II ([…]) thereto with 30 minutes interval. The third contraction response to Angiotensin II was considered as control.
10 minutes after the third contraction, the test compound was administered to the aorta preparation, which was incubated for 20 minutes.
Comparing angiotensin II contraction curve obtained from the above inhibition test with that of the control, IC50 (concentration being required to inhibit angiotensin II induced contraction by 50%) was determined for each test compound(Table 1).

| Structure (SMILES) | IC50 [nM] |
| --- | --- |
| CCCCc1nc(C)c(CCC(=O)N2CCC[C@H]2C(=O)OC)c(=O)n1Cc1ccc(-c2ccccc2-c2nn[nH]n2)cc1 [Compound 59, 2-n-butyl-5-[2'-((S)-2"-methoxycarbonylpyrrolidino)-carbonylethyl]-6-methyl-3-[[2'-(1H-tetrazol-5-yl)biphenyl-4-yl]-methyl]-pyrimidin-4-(3H)-one] | 3.36 |
| CCCCc1nc(C)c(CC(=O)O)c(=O)n1Cc1ccc(-c2ccccc2C(=O)O)cc1 [Compound 39, 2-n-butyl-5-carboxymethyl-6-methyl-3-(2'-carboxybiphenyl-4-yl)methyl-pyrimidin-4-(3H)-one] | 36.1 |
| CCCCc1nc(C)c(CCC(=O)N(CC)CC)c(=O)n1Cc1ccc(-c2ccccc2-c2nnn[nH]2)cc1 [Compound 27, 2-n-butyl-5-(2'-diethylaminocarbonylethyl)-6-methyl-3-[[2'-(1H-tetrazol-5-yl)biphenyl-4-yl]methyl]-pyrimidin-4-(3H )-one] | 30.8 |
| CCCCc1nc(C)c(CCC(=O)N2CCN(C(C)=O)CC2)c(=O)n1Cc1ccc(-c2ccccc2-c2nn[nH]n2)cc1 [Compound 81, 2-n-butyl-5-[2'-(4"-acetylpiperazino)carbonylethyl]-6-methyl-3-[[2'-(1H-tetrazol-5-yI)biphenyl-4-yl]methyl]-pyrimidin-4-(3H)-one] | 9.87 |
| CCCCc1nc(=O)c(CC(=O)N2CCCC2)c(C)n1Cc1ccc(-c2ccccc2-c2nn[nH]n2)cc1 [Compound 41, 2-n-butyl-5-pyrrolidinocarbonylmethyl-6-methyl-1-[[2'-(1H-tetrazol-5-yl)biphenyl-4-yl]methyl]-pyrimidin-4-(1H) -one] | 119 |
| CCCCc1nc(C)c(CC(=O)N(C)C)c(=O)n1Cc1ccc(-c2ccccc2-c2nnn[nH]2)cc1 [Compound 22, 2-n-butyl-5-dimethylaminocarbonylmethyl-6-methyl-3-[[2'-(1H-tetrazol-5-yl)biphenyl-4-yl]methyl]-pyrimidin-4-(3H)-one] | 2.37 |
| CCCCc1nc(C)c(CCC(=O)N2CCN(c3ccccn3)CC2)c(=O)n1Cc1ccc(-c2ccccc2-c2nn[nH]n2)cc1 [Compound 82, 2-n-butyl-5-[2'-(4"-(2'"-pyridyl)piperazino)carbonylethyl]-6-methyl-3-[[2'-(1H-tetrazol-5-yl)biphenyl-4-yl]methyl]-pyrimidin-4-(3H)-one] | 53 |
| CCCCc1nc(=O)c(CCCC(=O)O)c(C)n1Cc1ccc(-c2ccccc2-c2nn[nH]n2)cc1 [Compound 31, 2-n-butyl-5-(3'-carboxypropyl)-6-methyl-1-[[2'-(1H-tetrazol-5-yl)biphenyl-4-yl]methyl]-pyrimidin-4-(1H)-one] | 17 |
| CCCCc1nc(C)c(CCCC(=O)O)c(=O)n1Cc1ccc(-c2ccccc2-c2nnn[nH]2)cc1 [Compound 30, 2-n-butyl-5-(3'-carboxypropyl)-6-methyl-3-[[2'-(1H-tetrazol-5-yl)biphenyl-4-yl]methyl]-pyrimidin-4-(3H)-one] | 7.26 |
| CCCCc1nc(CC)c(CCC(=O)OCC)c(=O)n1Cc1ccc(-c2ccccc2-c2nn[nH]n2)cc1 [Compound 33, 2-n-butyl-5-(2'-ethoxycarbonylethyl)-6-ethyl-3-[[2'-(1H-tetrazol-5-yl)biphenyl-4-yl]methyl]-pyrimidin-4-(3H)-one] | 11.2 |
| CCCc1nc(=O)c(CCC(=O)O)c(C)n1Cc1ccc(-c2ccccc2-c2nn[nH]n2)cc1 [Compound 15, 2-n-propyl-5-(2'-carboxyethyl)-6-methyl-1-[[2'-(1H-tetrazol-5-yl)-biphenyl-4-yl]methyl]-pyrimidin-4-(1H)-one] | 19.4 |
| CCCCc1nc(C)c(CC(=O)N2CCCCCCC2)c(=O)n1Cc1ccc(-c2ccccc2-c2nn[nH]n2)cc1 [Compound 57, 2-n-butyl-5-heptamethyleneiminocarbonylmethyl-6-methyl-3-[[2'-(1H-tetrazol-5-yl)biphenyl-4-yl]methyl]-pyrimidin-4-(3H)-one] | 3.6 |
| CCCCc1nc(C)c(CC(=O)N2CCCCC2)c(=O)n1Cc1ccc(-c2ccccc2-c2nn[nH]n2)cc1 [Compound 45, 2-n-butyl-5-piperidinocarbonylmethyl-6-methyl-3-[[2'-(1H-tetrazol-5-yl)biphenyl-4-yl]methyl]-pyrimidin-4-(3H)-one] | 2.46 |

The next lines start with the values.

| IC50 [nM] | Structure (SMILES) |
| --- | --- |
| 2.95 | CCCCc1nc(C)c(CCCC(=O)N(CC)CC)c(=O)n1Cc1ccc(-c2ccccc2-c2nn[nH]n2)cc1 [Compound 32, 2-n-butyl-5-(3'-diethylaminocarbonylpropyl)-6-methyl-3-[[2'-(1H-tetrazol-5-yl)biphenyl-4-yl]methyl]-pyrimidin-4-(3H )-one] |
| 115 | CCCCc1nc(=O)c(CCC(=O)O)c(CCC)n1Cc1ccc(-c2ccccc2-c2nn[nH]n2)cc1 [Compound 37, 2-n-butyl-5-(2'-carboxyethyl)-6-propyl-1-[[2'-(1H-tetrazol-5-yl)-biphenyl-4-yl]methyl]-pyrimidin-4-(1H)-one] |
| 17 | CCCCc1nc(C)c(CCCC(=O)OCC)c(=O)n1Cc1ccc(-c2ccccc2-c2nnn[nH]2)cc1 [Compound 29, 2-n-butyl-5-(3'-ethoxycarbonylpropyl)-6-methyl-3-[[2'-(1H-tetrazol-5-yl)biphenyl-4-yl]methyl]-pyrimidin-4-(3H)-one] |
| 5.99 | CCCCc1nc(C)c(CC(=O)N2CCC(C(=O)OCC)CC2)c(=O)n1Cc1ccc(-c2ccccc2-c2nn[nH]n2)cc1 [Compound 51, 2-n-butyl-5-(4'-ethoxycarbonylpiperidinocarbonylmethyl)-6-methyl-3-[[2'-(1H-tetrazol-5-yl)biphenyl-4-yl]methyl]-pyrimidin-4-(3H)-one] |
| 62 | CCCCc1nc(=O)c(CCC(=O)O)c(CC)n1Cc1ccc(-c2ccccc2-c2nn[nH]n2)cc1 [Compound 35, 2-n-butyl-5-(2'-carboxyethyl)-6-ethyl-1-[[2'-(1H-tetrazol-5-yl)-biphenyl-4-yl]methyl]-pyrimidin-4-(1H)-one] |
| 73.6 | CCc1nc(C)c(CCC(=O)N(CC)CC)c(=O)n1Cc1ccc(-c2ccccc2-c2nnn[nH]2)cc1 [Compound 8, 2-ethyl-5-(2'-diethylaminocarbonylethyl)-6-methyl-3-[[2'-(1H-tetrazol-5-yl)biphenyl-4-yl]methyl]-pyrimidin-4(3H)-one] |
| 8.53 | CCCCc1nc(=O)c(CC(=O)O)c(C)n1Cc1ccc(-c2ccccc2-c2nnn[nH]2)cc1 [Compound 20, 2-n-butyl-5-carboxymethyl-6-methyl-1-[[2'-(1H-tetrazol-5-yl)-biphenyl-4-yl]methyl]-pyrimidin-4-(1H)-one] |
| 92.3 | CCCCc1nc(C)c(CCC(=O)NCc2ccccc2)c(=O)n1Cc1ccc(-c2ccccc2-c2nnn[nH]2)cc1 [Compound 28, 2-n-butyl-5-(2'-benzylaminocarbonylethyl)-6-methyl-3-[[2'-(1H-tetrazol-5-yl)biphenyl-4-yl]methyl]-pyrimidin-4-(3H)-one] |
| 2.63 | CCCCc1nc(C)c(CC(=O)N(CC)CC)c(=O)n1Cc1ccc(-c2ccccc2-c2nnn[nH]2)cc1 [Compound 21, 2-n-butyl-5-diethylaminocarbonylmethyl-6-methyl-3-[[2'-(1H-tetrazol-5-yl)biphenyl-4-yl]methyl]-pyrimidin-4-(3H)-one] |
| 9.62 | CCCCc1nc(C)c(CCC(=O)N2CCCCC2)c(=O)n1Cc1ccc(-c2ccccc2-c2nn[nH]n2)cc1 [Compound 62, 2-n-butyl-5-[2'-piperidinocarbonylethyl]-6-methyl-3-[[2'-(1H-tetrazol-5-yl)biphenyl-4-yl]methyl]-pyrimidin-4-(3H)-one] |
| 5.86 | CCCCc1nc(C)c(CCC(=O)N2CCCC2)c(=O)n1Cc1ccc(-c2ccccc2-c2nn[nH]n2)cc1 [Compound 58, 2-n-butyl-5-(2'-pyrrolidinocarbonylethyl)-6-methyl-3-[[2'-(1H-tetrazol-5-yl)biphenyl-4-yl]methyl]-pyrimidin-4-(3H)-one] |
| 302 | CCCCc1nc(C)c(CCC(=O)N2CCC(Cc3ccccc3)CC2)c(=O)n1Cc1ccc(-c2ccccc2-c2nn[nH]n2)cc1 [Compound 63, 2-n-butyl-5-[2'-(4"-benzylpiperidino)carbonylethyl]-6-methyl-3-[[2'-(1H -tetrazol-5-yl)biphenyl-4-yl]methyl]-pyrimidin-4-(3H)-one] |

same assay, conditions: test compound incubated 20 minutes, value given in M, read-out: IC50 (concentration being required to inhibit angiotensin II induced contraction by 50%)

| Structure (SMILES) | IC50 [nM] |
| --- | --- |
| CCCCc1nc(C)c(CCC(=O)N2CCC(C)CC2)c(=O)n1Cc1ccc(-c2ccccc2-c2nn[nH]n2)cc1 [Compound 64, 2-n-butyl-5-[2'-(4"-methylpiperidino)carbonylethyl]-6-methyl-3-[[2'-(1H-tetrazol-5-yl)biphenyl-4-yl]methyl]-pyrimidin-4-(3H)-one] | > 10000 |

— US5869476A, “Pyrimidinone derivatives” (Boryung Pharmaceutical Co., Ltd., priority 1994, dated 1999)
